Data taken from paper PMC12669672, “Structural insights into selective and dual antagonism of EP2 and EP4 prostaglandin receptors” (The EMBO Journal, 2025).
Where “and” joins values, the source holds several entries; their conditions need not be identical. Equal entries are not always repeated.

Legend:
EP4 S73A = target: T1, EP4 S73A (Homo sapiens, UniProt P35408, S73A); test: GloSensor cAMP assay, antagonism of PGE2-induced cAMP; type: cell-based; settings: for cAMP activity (∆pIC50 from EP4 WT): Grapiprant, S73A; for ΔpIC50: PGE2 0.5 nM, pIC50 mutant - pIC50 WT, mean
T1 construct: The full-length EP2 or EP4 was cloned into the pcDNA3.1 vector; FLAG (N); expressed in transfected cells; host or cells: AD293 cells
T1 sequence (P35408 whole entry S73A): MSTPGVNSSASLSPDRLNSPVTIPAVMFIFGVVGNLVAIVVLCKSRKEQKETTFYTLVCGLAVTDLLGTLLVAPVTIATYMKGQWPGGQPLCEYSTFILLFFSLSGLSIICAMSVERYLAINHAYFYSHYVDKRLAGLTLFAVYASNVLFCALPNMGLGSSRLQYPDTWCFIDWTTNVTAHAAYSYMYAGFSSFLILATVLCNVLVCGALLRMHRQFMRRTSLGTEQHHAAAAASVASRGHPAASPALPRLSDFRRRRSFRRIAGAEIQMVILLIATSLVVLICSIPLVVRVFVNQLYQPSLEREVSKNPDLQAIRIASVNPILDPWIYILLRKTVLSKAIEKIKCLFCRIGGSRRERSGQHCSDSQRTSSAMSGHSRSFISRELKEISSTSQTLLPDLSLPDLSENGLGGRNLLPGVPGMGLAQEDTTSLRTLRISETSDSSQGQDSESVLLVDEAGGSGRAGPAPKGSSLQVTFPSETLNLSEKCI

[1] = target: T2, constitutively active EP4 S73A (Homo sapiens, UniProt P35408, S73A); test: GloSensor cAMP assay, inhibition of constitutive activity; type: cell-based; settings: for ΔpIC50: no PGE2, pIC50 mutant - pIC50 WT, mean
T2 construct: The full-length EP2 or EP4 was cloned into the pcDNA3.1 vector (Invitrogen), incorporating an N-terminal FLAG tag; expressed in transfected cells; host or cells: AD293
T2 sequence (P35408 whole entry S73A): as above

EP4-L99M = target: T3, EP4-L99M (Homo sapiens, UniProt P35408, L99M); test: GloSensor cAMP assay, antagonism of PGE2-induced cAMP, chimeric studies; type: cell-based; settings: for ΔpIC50: PGE2 induced, pIC50 mutant - pIC50 WT, mean
T3 construct: The full-length EP2 or EP4 was cloned into the pcDNA3.1 vector (Invitrogen), incorporating an N-terminal FLAG tag; expressed in transfected cells; host or cells: AD293
T3 sequence (P35408 whole entry L99M): as the sequence (P35408 whole entry S73A) above, with A73S, L99M counted along it
Protocol: The full-length EP2 or EP4 was cloned into the pcDNA3.1 vector (Invitrogen), incorporating an N-terminal FLAG tag. AD293 cells were seeded in six-well plates containing DMEM supplemented with 10% dialyzed FBS 1 day prior to transfection. Following overnight growth, cells were transfected with a 1:1 ratio of receptor construct and GloSensor22F cAMP biosensor (Promega) plasmids.
Twenty-four hours post-transfection, the cells were transferred to CO2-independent media containing 2% GloSensor cAMP Reagent (Promega) and distributed into 384-well assay plates at a density of 4000 cells per well in 10 μL. […] The plates were then incubated at 37 °C for an additional hour before luminescence measurements were taken using an EnVision plate reader.
Data analysis was performed using GraphPad Prism software v8.0.1. A nonlinear regression analysis, employing a sigmoidal dose–response model, was conducted to determine the Emax values and half-maximum inhibitory concentrations (IC50) for each compound tested.

EP4 = target: EP4; set-up: method as in Nakao et al, 2007; settings: [3H]-PGE2 binding assay; ref Nakao et al, 2007; cited from earlier work

CCc1nc2c(C)nc(C)cc2n1-c1ccc(CCNC(=O)NS(=O)(=O)c2ccc(C)cc2)cc1 [Grapiprant]
IC50 (EP4 S73A): 5.62 nM
remaining activity at 0.01 µM (EP4 S73A; 1 h, Grapiprant log([M]) -8, read-out: % cAMP activity (normalized to WT)): 11.4%
remaining activity at 0.001 µM (EP4 S73A; 1 h, Grapiprant log([M]) -9, read-out: % cAMP activity (normalized to WT)): 21.5%
remaining activity at 0.0001 µM (EP4 S73A; 1 h, Grapiprant log([M]) -10, read-out: % cAMP activity (normalized to WT)): 24.9%
remaining activity at 10 pM (EP4 S73A; 1 h, Grapiprant log([M]) -11, read-out: % cAMP activity (normalized to WT)): 27.6%
remaining activity at 1 pM (EP4 S73A; 1 h, Grapiprant log([M]) -12, read-out: % cAMP activity (normalized to WT)): 23.6%
cAMP activity (∆pIC50 from EP4 WT) (EP4 S73A; Mean): 0.985
cAMP activity (∆pIC50 from EP4 WT) (EP4 S73A; single experiments 1st-3rd): 1.017 and 1.087 and 0.851
ΔpIC50 (EP4 S73A): 0.99 ± 0.07
ΔpIC50 (EP4 S73A; listed as grapiprant): enhanced the antagonism
IC50 [1]: 2.19 nM
remaining activity at 10 µM ([1]; 1 h, Grapiprant log([M]) -5.00, EP4-S73A, read-out: % cAMP activity (normalized to WT)): 12.1%
remaining activity at 1 µM ([1]; 1 h, Grapiprant log([M]) -6.00, EP4-S73A, read-out: % cAMP activity (normalized to WT)): 13.5%
remaining activity at 0.1 µM ([1]; 1 h, Grapiprant log([M]) -7.00, EP4-S73A, read-out: % cAMP activity (normalized to WT)): 20.4%
remaining activity at 0.01 µM ([1]; 1 h, Grapiprant log([M]) -8.00, EP4-S73A, read-out: % cAMP activity (normalized to WT)): 38.9%
remaining activity at 0.001 µM ([1]; 1 h, Grapiprant log([M]) -9.00, EP4-S73A, read-out: % cAMP activity (normalized to WT)): 127%
remaining activity at 1 pM ([1]; 1 h, Grapiprant log([M]) -12.00, EP4-S73A, read-out: % cAMP activity (normalized to WT)): 170%
Grapiprant cAMP activity (∆pIC50 from EP4 WT), Mean ([1]; S73A, Mean): 0.215
Grapiprant cAMP activity (∆pIC50 from EP4 WT) ([1]; S73A, single experiments 1st-3rd): 0.364 and 0.097 and 0.184
ΔpIC50 [1]: 0.22 ± 0.08
ΔpIC50 ([1]; listed as grapiprant): hardly influenced antagonistic potency
remaining activity at 0.1 µM (EP4-L99M; 1 h, Grapiprant log([M]) -7, single experiments 1st-3rd, Fig. S7C, read-out: % cAMP activity (normalized to WT)): 52.4%
remaining activity at 0.0001 µM (EP4-L99M; 1 h, Grapiprant log([M]) -10, single experiments 1st-3rd, Fig. S7C, read-out: % cAMP activity (normalized to WT)): 83.5%
remaining activity at 1 pM (EP4-L99M; 1 h, Grapiprant log([M]) -12, single experiments 1st-3rd, Fig. S7C, read-out: % cAMP activity (normalized to WT)): 85.6%
ΔpIC50 (EP4-L99M): -0.23 ± 0.07
ΔpIC50 (EP4-L99M; listed as grapiprant): slightly decreased the antagonistic potency
Ki (EP4): 13 nM
